Reference: patent US12134721B2, “Complexes and ligands” (The General Hospital Corporation, priority 2018, dated 2024)

Legend:
Assay type in all cases: physicochemical
[1] = Fluorescence lifetimes of selected lanthanide (Tb, Eu, Dy, Sm) complexes; conditions: Table 1
Procedure: (§1) Photophysical measurements: UV/visible and emission spectra were recorded on a Horiba Scientific Dual FL spectrophotometer. Ligands loaded with terbium were diluted into 1×PBS (pH 7.4) to a concentration of 20 uM (for absorbance) or 4 uM (for emission). For emission spectra, the data were normalized to the highest fluorescence signal. The fluorescence lifetime was determined by plotting the ln of the signal decay over time then solving for r in Equation 1:
(§2) [formula] where It is the intensity at time t, α is a normalization term (the preexponential factor) and τ is the lifetime.

[2] = Stability of Tb complexes (10 nM) in various buffers over 7 days; conditions: buffers with 0.05% TWEEN-20
Procedure: The stability of NCP190-Tb (10 nM) was measured over the course of 7 days in various different buffers. All buffers contained 0.05% TWEEN-20 detergent.
The stability of NCP134-Tb (10 nM) was measured over the course of 7 days in various different buffers. All buffers contained 0.05% TWEEN-20 detergent.

[3] = Photophysical measurements of terbium complexes in 1x PBS pH 7.4; conditions: for τPBS (fluorescence lifetime): 1x PBS pH 7.4; for Emission λmax: 1x PBS pH 7.4, 4 uM; for εmax / λmax, Abs: 1x PBS pH 7.4, 20 uM
Procedure: as §1, §2

[4] = Fluorescence lifetimes of selected lanthanide (Tb, Eu, Dy, Sm) complexes
[5] = Dy and Sm complexes of NCP189, Table 3

O=C1NCCN2CCNC(=O)c3cccc(c3O)C(=O)NCCN(CCNC(=O)c3cccc1c3O)CCN1CCNC(=O)c3cccc(c3O)C(=O)NCCN(CCNC(=O)c3cccc(c3O)C(=O)NCC1)CC2 [NCP 134-Tb]
Life Time [1]: 2.56 ms
Stability in various buffers [2]: only significantly destabilized by EDTA, however to a greater extent relative to NCP190-Tb
τPBS (fluorescence lifetime) [3]: 2.10 ms
Emission λmax [3]: 545 nm
εmax [3]: 11,600 M^−1cm^−1
λmax, Abs [3]: 340 nm

O=C(O)CN1CCN2CCNC(=O)c3cccc(c3O)C(=O)NCCN(CCNC(=O)c3cccc(c3O)C1=O)CCN1CCNC(=O)c3cccc(c3O)C(=O)NCCN(CCNC(=O)c3cccc(c3O)C(=O)NCC1)CC2 [NCP 144-Tb]
Life Time [1]: 2.06 ms
τPBS (fluorescence lifetime) [3]: 2.06 ms
Emission λmax [3]: 545 nm
εmax [3]: 19,230 M^−1cm^−1
λmax, Abs [3]: 340 nm

O=C1NCCN2CCNC(=O)c3cc(Br)cc(c3O)C(=O)NCCN(CCNC(=O)c3cc(Br)cc1c3O)CCN1CCNC(=O)c3cc(Br)cc(c3O)C(=O)NCCN(CCNC(=O)c3cc(Br)cc(c3O)C(=O)NCC1)CC2 [NCP 158-Tb]
Life Time [1]: 0.97 ms
τPBS (fluorescence lifetime) [3]: 0.97 ms
Emission λmax [3]: 545 nm
εmax [3]: 13,750 M^−1cm^−1
λmax, Abs [3]: 355 nm

O=C(CN1CCN2CCNC(=O)c3cccc(c3O)C(=O)NCCN(CCNC(=O)c3cccc(c3O)C1=O)CCN1CCNC(=O)c3cccc(c3O)C(=O)NCCN(CCNC(=O)c3cccc(c3O)C(=O)NCC1)CC2)NCCOCCOCCCCCCCl [NCP 166-Tb]
Life Time [1]: 2.23 ms

Nc1nc(CCc2ccc(CNC(=O)CN3CCN4CCNC(=O)c5cccc(c5O)C(=O)NCCN(CCNC(=O)c5cccc(c5O)C3=O)CCN3CCNC(=O)c5cccc(c5O)C(=O)NCCN(CCNC(=O)c5cccc(c5O)C(=O)NCC3)CC4)cc2)c2[nH]cnc2n1 [NCP 169-Tb]
Life Time [1]: 1.99 ms

O=C(O)CCCCCN1CCN2CCNC(=O)c3cccc(c3O)C(=O)NCCN(CCNC(=O)c3cccc(c3O)C1=O)CCN1CCNC(=O)c3cccc(c3O)C(=O)NCCN(CCNC(=O)c3cccc(c3O)C(=O)NCC1)CC2 [NCP 189-Dy]
Life Time [4, 5]: 22.7 ms

O=C(O)CCCCCN1CCN2CCNC(=O)c3cccc(c3O)C(=O)NCCN(CCNC(=O)c3cccc(c3O)C1=O)CCN1CCNC(=O)c3cccc(c3O)C(=O)NCCN(CCNC(=O)c3cccc(c3O)C(=O)NCC1)CC2 [NCP 189-Eu]
Life Time ([4]; Eu complexes, Table 2): 598 µs

O=C(O)CCCCCN1CCN2CCNC(=O)c3cccc(c3O)C(=O)NCCN(CCNC(=O)c3cccc(c3O)C1=O)CCN1CCNC(=O)c3cccc(c3O)C(=O)NCCN(CCNC(=O)c3cccc(c3O)C(=O)NCC1)CC2 [NCP 189-Sm]
Life Time [4, 5]: 28.1 ms

O=C(O)CCCCCN1CCN2CCNC(=O)c3cccc(c3O)C(=O)NCCN(CCNC(=O)c3cccc(c3O)C1=O)CCN1CCNC(=O)c3cccc(c3O)C(=O)NCCN(CCNC(=O)c3cccc(c3O)C(=O)NCC1)CC2 [NCP 189-Tb]
Life Time [1]: 1.79 ms

O=C(CCCCCN1CCN2CCNC(=O)c3cccc(c3O)C(=O)NCCN(CCNC(=O)c3cccc(c3O)C1=O)CCN1CCNC(=O)c3cccc(c3O)C(=O)NCCN(CCNC(=O)c3cccc(c3O)C(=O)NCC1)CC2)NCCOCCOCCCCCCCl [NCP 190-Tb]
Life Time [1]: 2.46 ms
Stability in various buffers [2]: only significantly destabilized by EDTA

Nc1nc(CCc2ccc(CNC(=O)CCCCCN3CCN4CCNC(=O)c5cccc(c5O)C(=O)NCCN(CCNC(=O)c5cccc(c5O)C3=O)CCN3CCNC(=O)c5cccc(c5O)C(=O)NCCN(CCNC(=O)c5cccc(c5O)C(=O)NCC3)CC4)cc2)c2nc[nH]c2n1 [NCP 191-Tb]
Life Time [1]: 2.11 ms

O=C(O)CCCCCN1CCN2CCNC(=O)c3cccc(c3O)C(=O)NCCN(CCNC(=O)c3cccc(n3)C1=O)CCN1CCNC(=O)c3cccc(c3O)C(=O)NCCN(CCNC(=O)c3cccc(c3O)C(=O)NCC1)CC2 [NCP 227-Eu]
Life Time ([4]; Eu complexes, Table 2): 651 µs

O=C(O)CCCCCN1CCN2CCNC(=O)c3cccc(c3O)C(=O)NCCN(CCNC(=O)c3cccc(n3)C1=O)CCN1CCNC(=O)c3cccc(c3O)C(=O)NCCN(CCNC(=O)c3cccc(c3O)C(=O)NCC1)CC2 [NCP 227-Tb]
Life Time [1]: 1.20 ms

O=C(O)CCCCCN1CCN2CCNC(=O)c3cccc(c3O)C(=O)NCCN(CCNC(=O)c3cccc(c3)C1=O)CCN1CCNC(=O)c3cccc(c3O)C(=O)NCCN(CCNC(=O)c3cccc(c3O)C(=O)NCC1)CC2 [NCP 259-Eu]
Life Time ([4]; Eu complexes, Table 2): 657 µs

O=C(O)CCCCCN1CCN2CCNC(=O)c3cccc(c3O)C(=O)NCCN(CCNC(=O)c3cccc(c3)C1=O)CCN1CCNC(=O)c3cccc(c3O)C(=O)NCCN(CCNC(=O)c3cccc(c3O)C(=O)NCC1)CC2 [NCP 259-Tb]
Life Time [1]: 1.37 ms

O=C1NCCN2CCNC(=O)c3cccc(c3O)C(=O)NCCN(CCNC(=O)c3cccc1c3O)CC(=O)N1CCNC(=O)c3cccc(c3O)C(=O)NCCN(CCNC(=O)c3cccc(c3O)C(=O)NCC1)CC2 [NCP 272-Eu]
Life Time ([4]; Eu complexes, Table 2): 609 µs

O=C1NCCN2CCNC(=O)c3cccc(c3O)C(=O)NCCN(CCNC(=O)c3cccc1c3O)CC(=O)N1CCNC(=O)c3cccc(c3O)C(=O)NCCN(CCNC(=O)c3cccc(c3O)C(=O)NCC1)CC2 [NCP 272-Tb]
Life Time [1]: 1.53 ms

O=C1NCCN2CCNC(=O)c3cccc(c3O)C(=O)NCCN(CCNC(=O)c3cccc1c3O)C(=O)N1CCNC(=O)c3cccc(c3O)C(=O)NCCN(CCNC(=O)c3cccc(c3O)C(=O)NCC1)CC2 [NCP 275-Eu]
Life Time ([4]; Eu complexes, Table 2): 505 ms

O=C1NCCN2CCNC(=O)c3cccc(c3O)C(=O)NCCN(CCNC(=O)c3cccc1c3O)C(=O)N1CCNC(=O)c3cccc(c3O)C(=O)NCCN(CCNC(=O)c3cccc(c3O)C(=O)NCC1)CC2 [NCP 275-Tb]
Life Time [1]: 1.39 ms

BH(2,2)IAM-N-carboxymethyl-Halotag [NCP166]
τPBS (fluorescence lifetime) [3]: 2.23 ms
Emission λmax [3]: 545 nm
εmax [3]: 10,800 M^−1cm^−1
λmax, Abs [3]: 340 nm
